Read-outs that look alike come from different tables or passages of the source.

This is an account of results in paper PMC3026848 (Bioorganic & medicinal chemistry, 2010).

One data set deals with UACC-62 cells. Kind of data set: Cell cycle distribution by flow cytometry. It counts as cell-based, human. As to conditions: UACC-62, 6 days, 0.01 µM to 1 µM, PI staining.
In data set [1] the test system is PC-3 (human prostate cancer). Kind of data set: Screening against PC-3. It counts as cell-based. As to conditions: unpublished data from this laboratory.
For data set [2], the system named is NCI-H226 (human lung cancer). Nature of the data set: Screening against NCI-H226. It counts as cell-based. As to conditions: unpublished data from this laboratory.
Data set [3] concerns UO-31 (human renal cancer). Kind of data set: Screening against UO-31. Particulars: unpublished data from this laboratory. It counts as cell-based.
The subject of another data set is A431(human skin cancer). Nature of the data set: Screening against A431. Type of data set: cell-based. As to conditions: unpublished data from this laboratory.
For data set [4] the following is noted: cited from earlier work.
The next data set relates to melanoma. As to conditions: melanoma chemotherapy; cited from earlier work.
For data set [5] the following is noted: high dosages; cited from earlier work.

`CC(=O)N[C@@H](CSC(=O)Nc1ccc(Cl)cc1)C(=O)O` [NACC, N-Acetyl-S-(p-chlorophenylcarbamoyl)cysteine]: the “effect on cell cycle distribution” value with UACC-62 cells was “no change in cell cycle distribution was observed”. Besides, the “activity against PC-3” value in data set [1] is “Poor activities”. Besides, the “activity against NCI-H226” value in data set [2] is “Poor activities”. In addition, the “activity against UO-31” value in data set [3] is given as “Poor activities”. For the same molecule, the “activity against A431” value in the data set with A431(human skin cancer) is “Poor activities”. The protein binding in data set [4] (reported earlier) is 84%.

Consider `CN(C)/N=N/c1[nH]cnc1C(N)=O` [Dacarbazine, dacarbazine], for which the response rate in the data set with melanoma is on record as 10% to 20.

On to `O=C(Nc1ccc(Cl)cc1)NS(=O)(=O)c1ccc2c(c1)CCC2` [Sulofenur, reference compound], for which the protein binding result in data set [4] was “greater than 99%”. In addition, the “adverse effects in clinical trials” value in data set [5] was “hemolytic anemia and methemoglobinemia were observed”.
